{"source": "patent US9510598B2", "about": "“Nitrogen-containing heterocyclic compounds for plant disease control” (BAYER CROPSCIENCE AG, priority 2012, dated 2016)", "key": {"[1]": {"assay_type": "physicochemical"}, "Phytophthora infestans": {"tested_on": "Phytophthora infestans", "assay_type": "in vivo", "details": "500 ppm; tomato plants sprayed 24 hours before contamination; grading 5 days after contamination vs control plants"}, "Septoria tritici": {"tested_on": "Septoria tritici", "assay": "In vivo preventive test on Septoria tritici (leaf spot on wheat)", "details": "500 ppm; wheat plants sprayed 24 hours before contamination; grading 21 to 28 days after contamination vs control plants", "outline": "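Scipion wheat at 1-leaf stage sprayed with compound, controls receiving acetone/tween/DMSO/water vehicle; 24 h later leaves inoculated with Septoria tritici spores (500 000 spores per ml). Efficacy (%) graded versus control plants 21 to 28 days after contamination.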"}, "Botrytis cinerea": {"tested_on": "Botrytis cinerea", "assay": "In vivo preventive test on Botrytis cinerea (grey mould)", "details": "500 ppm; gherkin plants sprayed 24 hours before contamination; grading 4-5 days after contamination vs control plants", "outline": "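Gherkin plants (\"Vert petit de Paris\") sprayed with compound at Z11 cotyledon stage, then inoculated 24 h later with B. cinerea spores (50 000/ml) in PDB/fructose/NH4NO3/KH2PO4 nutrient solution. Incubated at 17 °C, 80% RH; % efficacy versus solvent-treated controls graded 4–5 days after contamination.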"}, "Sphaerotheca fuliginea": {"tested_on": "Sphaerotheca fuliginea", "assay": "In vivo preventive test on Sphaerotheca fuliginea (powdery mildew on cucurbits)", "details": "500 ppm; gherkin plants sprayed 24 hours before contamination; grading 12 days after contamination vs control plants", "outline": "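Preventive spray of gherkin plants at Z11 cotyledon stage, grown at 24° C; inoculation 24 hours later with Sphaerotheca fuliginea spores (100 000 spores per ml). Efficacy graded 12 days post-inoculation as % versus solvent-treated control plants.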"}, "[2]": {"details": "method [a]: HPLC/LC-MS on reversed phase at pH 2.7, 0.1% formic acid in water / acetonitrile, linear gradient 10% to 95% acetonitrile"}, "[3]": {"details": "HPLC on reversed phase columns, method [a]: pH 2.7, 0.1% formic acid in water / acetonitrile, linear gradient 10% to 95% acetonitrile"}, "[4]": {"details": "method [a]: HPLC/LC-MS on reversed phase at pH 2.7, 0.1% formic acid in water / acetonitrile, gradient 10% to 95% acetonitrile"}, "[5]": {"details": "HPLC on reversed phase columns, method [a]: pH 2.7, 0.1% formic acid in water and acetonitrile, linear gradient 10% to 95% acetonitrile"}}, "note": "Read-outs that look alike come from different tables or passages of the source.", "data": [{"compound": "C#Cc1cnc2ccc(C3=NOC(C)(C(=O)NCc4c(C)nn(C(C)C)c4C)C3)cc2c1", "note": "(stereo not shown) [compound 196]", "values": [{"measurement": "log P", "setting": "[1]; [2]", "result": "2.32^[a]"}, {"measurement": "% of efficacy (protection)", "setting": "Phytophthora infestans", "result": 94, "unit": "%"}]}, {"compound": "C#Cc1cnc2ccc(C3=NOC(C)(C(=O)NCc4cnn(C(C)C)c4)C3)cc2c1", "note": "(stereo not shown) [compound 197]", "values": [{"measurement": "% of efficacy (protection)", "setting": "Septoria tritici", "result": 86, "unit": "%"}, {"measurement": "% of efficacy (protection)", "setting": "Botrytis cinerea", "result": 100, "unit": "%"}, {"measurement": "% of efficacy (protection)", "setting": "Sphaerotheca fuliginea", "result": 98, "unit": "%"}, {"measurement": "log P", "setting": "[1]; [2]", "result": "2.23^[a]"}, {"measurement": "% of efficacy (protection)", "setting": "Phytophthora infestans", "result": 97, "unit": "%"}]}, {"compound": "CC(C)n1cc(CNC(=O)C2(C)CC(c3ccc4ncc(Br)cc4c3)=NO2)cn1", "note": "(stereo not shown) [compound 199]", "values": [{"measurement": "% of efficacy (protection)", "setting": "Botrytis cinerea", "result": 99, "unit": "%"}, {"measurement": "% of efficacy (protection)", "setting": "Sphaerotheca fuliginea", "result": 98, "unit": "%"}, {"measurement": "log P", "setting": "[1]; [2]", "result": "2.5^[a]"}, {"measurement": "% of efficacy (protection)", "setting": "Phytophthora infestans", "result": 92, "unit": "%"}]}, {"compound": "CC1(C(=O)NCc2cnn(Cc3ccccc3)c2)CC(c2ccc3ncc(Br)cc3c2)=NO1", "note": "(stereo not shown) [compound 201]", "values": [{"measurement": "% of efficacy (protection)", "setting": "Septoria tritici", "result": 86, "unit": "%"}, {"measurement": "log P", "setting": "[1]; [2]", "result": "2.94^[a]"}, {"measurement": "% of efficacy (protection)", "setting": "Phytophthora infestans", "result": 92, "unit": "%"}]}, {"compound": "CC(NC(=O)C1(C)CC(c2ccc3ncc(Br)cc3c2)=NO1)C1CCOC1", "note": "(stereo not shown) [compound 291]", "values": [{"measurement": "% of efficacy (protection)", "setting": "Septoria tritici", "result": 100, "unit": "%"}, {"measurement": "% of efficacy (protection)", "setting": "Botrytis cinerea", "result": 88, "unit": "%"}, {"measurement": "% of efficacy (protection)", "setting": "Sphaerotheca fuliginea", "result": 80, "unit": "%"}, {"measurement": "log P", "setting": "[1]; [3]", "result": "2.46[a]"}, {"measurement": "% of efficacy (protection)", "setting": "Phytophthora infestans", "result": 87, "unit": "%"}]}, {"compound": "CON=CC(C)(C)NC(=O)C1(C)CC(c2ccc3ncc(Br)cc3c2)=NO1", "note": "(stereo not shown) [compound 298]", "values": [{"measurement": "% of efficacy (protection)", "setting": "Septoria tritici", "result": 100, "unit": "%"}, {"measurement": "% of efficacy (protection)", "setting": "Botrytis cinerea", "result": 87, "unit": "%"}, {"measurement": "log P", "setting": "[1]; [3]", "result": "3.29[a]"}, {"measurement": "% of efficacy (protection)", "setting": "Phytophthora infestans", "result": 100, "unit": "%"}]}, {"compound": "CCn1cc(C(C)NC(=O)C2(C)CC(c3ccc4ncc(Br)cc4c3)=NO2)c(C)n1", "note": "(stereo not shown) [compound 312]", "values": [{"measurement": "% of efficacy (protection)", "setting": "Septoria tritici", "result": 100, "unit": "%"}, {"measurement": "% of efficacy (protection)", "setting": "Sphaerotheca fuliginea", "result": 94, "unit": "%"}, {"measurement": "log P", "setting": "[1]; [3]", "result": "2.52[a]"}, {"measurement": "% of efficacy (protection)", "setting": "Phytophthora infestans", "result": 100, "unit": "%"}]}, {"compound": "C#Cc1cnc2ccc(C3=NOC(C)(C(=O)NC(C)C4=NOCC4)C3)cc2c1", "note": "(stereo not shown) [compound 338]", "values": [{"measurement": "% of efficacy (protection)", "setting": "Septoria tritici", "result": 100, "unit": "%"}, {"measurement": "% of efficacy (protection)", "setting": "Sphaerotheca fuliginea", "result": 100, "unit": "%"}, {"measurement": "log P", "setting": "[1]; [3]", "result": "2.08[a]"}, {"measurement": "% of efficacy (protection)", "setting": "Phytophthora infestans", "result": 92, "unit": "%"}]}, {"compound": "C#Cc1cnc2ccc(C3=NOC(C)(C(=O)NC(C)c4cn(CC)nc4C)C3)cc2c1", "note": "(stereo not shown) [compound 351]", "values": [{"measurement": "% of efficacy (protection)", "setting": "Septoria tritici", "result": 100, "unit": "%"}, {"measurement": "% of efficacy (protection)", "setting": "Sphaerotheca fuliginea", "result": 98, "unit": "%"}, {"measurement": "log P", "setting": "[1]; [3]", "result": "2.28[a]"}, {"measurement": "% of efficacy (protection)", "setting": "Phytophthora infestans", "result": 100, "unit": "%"}]}, {"compound": "C#Cc1cnc2ccc(C3=NOC(OC)(C(=O)NCc4c(C)cnn4CCC)C3)cc2c1", "note": "(stereo not shown) [compound 409]", "values": [{"measurement": "% of efficacy (protection)", "setting": "Septoria tritici", "result": 100, "unit": "%"}, {"measurement": "% of efficacy (protection)", "setting": "Botrytis cinerea", "result": 100, "unit": "%"}, {"measurement": "% of efficacy (protection)", "setting": "Sphaerotheca fuliginea", "result": 98, "unit": "%"}, {"measurement": "log P", "setting": "[1]; [4]", "result": "2.33[a]"}, {"measurement": "% of efficacy (protection)", "setting": "Phytophthora infestans", "result": 100, "unit": "%"}]}, {"compound": "CCCn1cc(CNC(=O)C2(C)CC(c3ccc4ncc(I)cc4c3)=NO2)c(C)n1", "note": "(stereo not shown) [compound 455]", "values": [{"measurement": "% of efficacy (protection)", "setting": "Botrytis cinerea", "result": 98, "unit": "%"}, {"measurement": "% of efficacy (protection)", "setting": "Sphaerotheca fuliginea", "result": 98, "unit": "%"}, {"measurement": "log P", "setting": "[1]; [4]", "result": "2.75[a]"}, {"measurement": "% of efficacy (protection)", "setting": "Phytophthora infestans", "result": 100, "unit": "%"}]}, {"compound": "C#Cc1cnc2ccc(C3=NOC(C)(C(=O)NCc4cn(C(C)C)nc4C)C3)cc2c1", "note": "(stereo not shown) [compound 461]", "values": [{"measurement": "% of efficacy (protection)", "setting": "Botrytis cinerea", "result": 99, "unit": "%"}, {"measurement": "% of efficacy (protection)", "setting": "Sphaerotheca fuliginea", "result": 98, "unit": "%"}, {"measurement": "log P", "setting": "[1]; [4]", "result": "2.34[a]"}, {"measurement": "% of efficacy (protection)", "setting": "Phytophthora infestans", "result": 100, "unit": "%"}]}, {"compound": "C#Cc1cnc2ccc(C3=NOC(C)(C(=O)NC(C)(C)/C=N/OC)C3)cc2c1", "note": "(stereo not shown) [compound 463]", "values": [{"measurement": "% of efficacy (protection)", "setting": "Septoria tritici", "result": 100, "unit": "%"}, {"measurement": "% of efficacy (protection)", "setting": "Botrytis cinerea", "result": 100, "unit": "%"}, {"measurement": "% of efficacy (protection)", "setting": "Sphaerotheca fuliginea", "result": 97, "unit": "%"}, {"measurement": "log P", "setting": "[1]; [4]", "result": "2.92[a]"}, {"measurement": "% of efficacy (protection)", "setting": "Phytophthora infestans", "result": 100, "unit": "%"}]}, {"compound": "C#Cc1cnc2ccc(C3=NOC(C)(C(=O)NCc4cnn(CC)c4CC)C3)cc2c1", "note": "(stereo not shown) [compound 464]", "values": [{"measurement": "% of efficacy (protection)", "setting": "Septoria tritici", "result": 100, "unit": "%"}, {"measurement": "% of efficacy (protection)", "setting": "Botrytis cinerea", "result": 98, "unit": "%"}, {"measurement": "% of efficacy (protection)", "setting": "Sphaerotheca fuliginea", "result": 100, "unit": "%"}, {"measurement": "log P", "setting": "[1]; [4]", "result": "2.37[a]"}, {"measurement": "% of efficacy (protection)", "setting": "Phytophthora infestans", "result": 100, "unit": "%"}]}, {"compound": "C#Cc1cnc2ccc(C3=NOC(C)(C(=O)NC(C)(C)c4nc(C)cs4)C3)cc2c1", "note": "(stereo not shown) [compound 516]", "values": [{"measurement": "% of efficacy (protection)", "setting": "Botrytis cinerea", "result": 100, "unit": "%"}, {"measurement": "log P", "setting": "[1]; [3]", "result": "2.92[a]"}, {"measurement": "% of efficacy (protection)", "setting": "Phytophthora infestans", "result": 73, "unit": "%"}]}, {"compound": "C#Cc1cnc2c(Cl)cc(C3=NOC(C)(C(=O)NCc4cn(CCC)nc4C)C3)cc2c1", "note": "(stereo not shown) [compound 551]", "values": [{"measurement": "% of efficacy (protection)", "setting": "Septoria tritici", "result": 93, "unit": "%"}, {"measurement": "% of efficacy (protection)", "setting": "Botrytis cinerea", "result": 98, "unit": "%"}, {"measurement": "log P", "setting": "[1]; [3]", "result": "2.78[a]"}, {"measurement": "% of efficacy (protection)", "setting": "Phytophthora infestans", "result": 81, "unit": "%"}]}, {"compound": "C=CC1(C(=O)NCc2cn(CC)nc2C)CC(c2ccc3ncc(I)cc3c2)=NO1", "note": "(stereo not shown) [compound 728]", "values": [{"measurement": "% of efficacy (protection)", "setting": "Botrytis cinerea", "result": 97, "unit": "%"}, {"measurement": "% of efficacy (protection)", "setting": "Sphaerotheca fuliginea", "result": 100, "unit": "%"}, {"measurement": "log P", "setting": "[1]; [5]", "result": "2.75[a]"}, {"measurement": "% of efficacy (protection)", "setting": "Phytophthora infestans", "result": 100, "unit": "%"}]}, {"compound": "C=CC1(C(=O)NCCCOCC)CC(c2ccc3ncc(Br)cc3c2)=NO1", "note": "(stereo not shown) [compound 733]", "values": [{"measurement": "% of efficacy (protection)", "setting": "Septoria tritici", "result": 92, "unit": "%"}, {"measurement": "% of efficacy (protection)", "setting": "Sphaerotheca fuliginea", "result": 98, "unit": "%"}, {"measurement": "log P", "setting": "[1]; [5]", "result": "3.06[a]"}, {"measurement": "% of efficacy (protection)", "setting": "Phytophthora infestans", "result": 100, "unit": "%"}]}]}
